Laboratory results: ChEMBL document CHEMBL1159153, “Synthesis and biological activity of 3,4,5-trihydroxy etoposide” (Bioorg Med Chem Lett, 1993)
Values after ≈ are worked out from the molar mass of the structure shown.

What was measured:
[1] = test system: Mus musculus; assay: Tested for percent median survival time of drug-treated mice compared to saline -treated control at a dose of 75 mg/kg intraperitoneally; assay type: functional; details: route intraperitoneal
[2] = Ratio of inhibition of HCT116 to that of inhibition of HCT/VP 35 cells; assay type: functional, HCT-116
[3] = test system: HCT cell line; assay: Compound was evaluated for in vitro cytotoxicity against HCT/VP35 cells; assay type: functional, cell-based; details: Homo sapiens
[4] = test system: Mus musculus; assay: Tested for percent median survival time of drug-treated mice compared to saline -treated control at a dose of 150 mg/kg intraperitoneally; assay type: functional; details: route intraperitoneal
[5] = test system: Mus musculus; assay: Tested for percent median survival time of drug-treated mice compared to saline -treated control at a dose of 38 mg/kg intraperitoneally; assay type: functional; details: route intraperitoneal
[6] = test system: HCT-116; assay: Tested for in vitro cytotoxicity against HCT116 cells; assay type: functional, cell-based; details: Homo sapiens
[7] = test system: Mus musculus; assay: Long-time survivors of mice alive/total on day 30 after administration (100 mg/kg) intraperitoneally on days 5 and 8 (experiment 1); assay type: functional
[8] = test system: Mus musculus; assay: Tested for percent median survival time of drug-treated mice compared to saline -treated control at a dose of 100 mg/kg intraperitoneally; assay type: functional; details: route intraperitoneal
[9] = test system: Mus musculus; assay: Tested for percent median survival time of drug-treated mice compared to saline -treated control at a dose of 50 mg/kg intraperitoneally; assay type: functional; details: route intraperitoneal
[10] = test system: Mus musculus; assay: Long time survivors of mice alive/total on day 30 after administration (60 mg/kg per injection) intraperitoneally on days 1 and 5; 4 survived out of 4 mice; assay type: functional
[11] = test system: Mus musculus; assay: Long-time survivors of mice alive/total on day 30 after administration (60 mg/kg per injection) intraperitoneally on days 1 and 5; assay type: functional
[12] = test system: Mus musculus; assay: Long time survivors of mice alive/total on day 30 after administration of the compound; 3 survived out of 4 mice.; assay type: functional
[13] = test system: Mus musculus; assay: Long time survivors of mice alive/total on day 30 after administration of the compound; 1 survived out of 4 mice.; assay type: functional
[14] = test system: Mus musculus; assay: Tested for percent median survival time of drug-treated mice compared to saline -treated control at a dose of 25 mg/kg intraperitoneally; assay type: functional; details: route intraperitoneal
[15] = test system: Mus musculus; assay: Long time survivors of mice alive/total on day 30 after administration (60 mg/kg per injection) intraperitoneally on days 1 and 5; 2 survived out of 4 mice.; assay type: functional
[16] = test system: Mus musculus; assay: Tested for percent median survival time of drug-treated mice compared to saline -treated control at a dose of 40 mg/kg intraperitoneally; assay type: functional; details: route intraperitoneal
[17] = test system: Mus musculus; assay: Tested for percent median survival time of drug-treated mice compared to saline -treated control at a dose of 80 mg/kg intraperitoneally; assay type: functional; details: route intraperitoneal
[18] = test system: Mus musculus; assay: Tested for percent median survival time of drug-treated mice compared to saline -treated control at a dose of 120 mg/kg intraperitoneally; assay type: functional; details: route intraperitoneal

SMILES | Ratio [2] | IC50 [3] | IC50 [6] | Max T/C [11] | LTS [12] | LTS [13] | further results
C[C@@H]1OC[C@H]2O[C@@H](O[C@@H]3c4cc5c(cc4[C@@H](c4cc(O)c(O)c(O)c4)[C@H]4C(=O)OC[C@@H]43)OCO5)[C@H](O)[C@@H](O)[C@@H]2O1 | 0.87 | 68.9 µg/mL (≈ 123 µM) | 79 µg/mL (≈ 141 µM) | – | – | – | T/C [1]: 130; T/C [4]: 150; T/C [5]: 100; Max T/C [7]: 230%
COc1cc([C@@H]2c3cc4c(cc3[C@@H](O[C@@H]3O[C@@H]5CO[C@@H](C)O[C@H]5[C@H](O)[C@H]3O)[C@H]3COC(=O)[C@H]23)OCO4)cc(O)c1O | – | – | 35 µg/mL (≈ 60.9 µM) | > 563% | 2 | 1 | T/C [8]: 344; T/C [9]: >413; LTS [10]: 4; T/C [14]: 250
COC1=CC([C@@H]2c3cc4c(cc3[C@@H](O[C@@H]3O[C@@H]5CO[C@@H](C)O[C@H]5[C@H](O)[C@H]3O)[C@H]3COC(=O)[C@@H]32)OCO4)=CC(=O)C1=O | – | – | – | > 595% | 3 | >1 | LTS [15]: 2; T/C [16]: 274; T/C [17]: >621; T/C [18]: 447
COc1cc([C@@H]2c3cc4c(cc3[C@@H](O[C@@H]3O[C@@H]5CO[C@@H](C)O[C@H]5[C@H](O)[C@H]3O)[C@H]3COC(=O)[C@H]23)OCO4)cc(OC)c1O [ETOPOSIDE] | 15 | 5.2 µg/mL (≈ 8.84 µM) | 0.35 µg/mL (≈ 0.595 µM) | – | – | – | –
